Measured values reported in PubChem BioAssay (NCI).
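The compound was tested at five concentrations on cells cultured in 96-well plates, with a 48-hour exposure period. GI50 is the concentration that inhibits growth by half. TGI is the concentration that stops growth completely.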

Legend:
Assay in all cases: NCI anticancer screen, dose series, 48 h
[1] = system: PC-3 prostate
[2] = system: ACHN renal
[3] = system: OVCAR-5 ovarian
[4] = system: HCT-15 colon
[5] = system: 786-0 renal
[6] = system: SN12C renal
[7] = system: MOLT-4 leukemia
[8] = system: NCI-H460 lung
[9] = system: SF-539 CNS
[10] = system: U251 CNS
[11] = system: SW-620 colon
[12] = system: TK-10 renal
[13] = system: LOX IMVI melanoma
[14] = system: SF-268 CNS
[15] = system: HCT-116 colon
[16] = system: SK-MEL-5 melanoma
[17] = system: NCI-H226 lung
[18] = system: UACC-257 melanoma
[19] = system: NCI-H23 lung
[20] = system: MDA-MB-231 breast
[21] = system: SK-MEL-28 melanoma
[22] = system: SK-OV-3 ovarian
[23] = system: HOP-62 NSCLC
[24] = system: CAKI-1 renal
[25] = system: NCI/ADR-RES ovarian
[26] = system: SNB-75 CNS
[27] = system: NCI-H522 lung
[28] = system: SR leukemia
[29] = system: UO-31 renal
[30] = system: HOP-92 NSCLC
[31] = system: T-47D breast
[32] = system: A549 NSCLC
[33] = system: BT-549 breast
[34] = system: DU-145 prostate
[35] = system: HT29 colon
[36] = system: MDA-MB-435
[37] = system: IGROV1 ovarian
[38] = system: MALME-3M melanoma
[39] = system: SF-295 CNS
[40] = system: SK-MEL-2 melanoma
[41] = system: HCC-2998 colon
[42] = system: EKVX NSCLC
[43] = system: COLO 205 colon
[44] = system: SNB-19 CNS
[45] = system: OVCAR-8 ovarian
[46] = system: HL-60(TB) leukemia
[47] = system: A498 renal
[48] = system: UACC-62 melanoma
[49] = system: HS 578T breast
[50] = system: RXF 393 renal
[51] = system: OVCAR-4 ovarian
[52] = system: MCF7 breast
[53] = system: M14 melanoma
[54] = system: KM12 colon
[55] = system: OVCAR-3 ovarian

Question: Which GI50 [1] does the source give for `Oc1c(Cl)cc(Cl)c(Cl)c1Cc1c(O)c(Cl)cc(Cl)c1Cl` here?
Answer: The GI50 was 0.498 µM.

Question: And the TGI [1]?
Answer: Its TGI is 10.6 µM.

Question: And the GI50 [2]?
Answer: Its GI50 is 2.27 µM.

Question: What about the TGI [2] of the same molecule?
Answer: Its TGI is 31.3 µM.

Question: And the GI50 [3]?
Answer: Its GI50 is 6.14 µM.

Question: What about the TGI [3] of the same molecule?
Answer: The TGI was 19.1 µM.

Question: And the GI50 [4]?
Answer: The GI50 was 0.528 µM.

Question: What about the TGI [4] of the same molecule?
Answer: Its TGI is 13.7 µM.

Question: What about the GI50 [5] of the same molecule?
Answer: Its GI50 is 1.96 µM.

Question: What about the TGI [5] of the same molecule?
Answer: The TGI was 11.8 µM.

Question: What about the GI50 [6] of the same molecule?
Answer: Its GI50 is 0.431 µM.

Question: What about the TGI [6] of the same molecule?
Answer: Its TGI is 22.2 µM.

Question: And the GI50 [7]?
Answer: The GI50 was 1.31 µM.

Question: And the TGI [7]?
Answer: Its TGI is 36.1 µM.

Question: What about the GI50 [8] of the same molecule?
Answer: The GI50 was 0.534 µM.

Question: What about the TGI [8] of the same molecule?
Answer: Its TGI is 12.5 µM.

Question: And the GI50 [9]?
Answer: Its GI50 is 3.39 µM.

Question: What about the TGI [9] of the same molecule?
Answer: Its TGI is 18.8 µM.

Question: And the GI50 [10]?
Answer: The GI50 was 1.09 µM.

Question: And the TGI [10]?
Answer: The TGI was 12.7 µM.

Question: What about the GI50 [11] of the same molecule?
Answer: Its GI50 is 3.06 µM.

Question: And the TGI [11]?
Answer: Its TGI is 14.4 µM.

Question: And the GI50 [12]?
Answer: Its GI50 is 3.04 µM.

Question: And the TGI [12]?
Answer: Its TGI is 35.5 µM.

Question: What about the GI50 [13] of the same molecule?
Answer: The GI50 was 2.39 µM.

Question: And the TGI [13]?
Answer: Its TGI is 11.2 µM.

Question: What about the GI50 [14] of the same molecule?
Answer: Its GI50 is 1.08 µM.

Question: And the TGI [14]?
Answer: Its TGI is 17.5 µM.

Question: What about the GI50 [15] of the same molecule?
Answer: The GI50 was 0.41 µM.

Question: And the TGI [15]?
Answer: The TGI was 10.2 µM.

Question: And the GI50 [16]?
Answer: Its GI50 is 0.712 µM.

Question: What about the TGI [16] of the same molecule?
Answer: Its TGI is 3.04 µM.

Question: And the GI50 [17]?
Answer: Its GI50 is 2.46 µM.

Question: And the TGI [17]?
Answer: The TGI was 13 µM.

Question: And the GI50 [18]?
Answer: Its GI50 is 2.06 µM.

Question: What about the TGI [18] of the same molecule?
Answer: Its TGI is 9.3 µM.

Question: What about the GI50 [19] of the same molecule?
Answer: The GI50 was 0.593 µM.

Question: What about the TGI [19] of the same molecule?
Answer: Its TGI is 12 µM.

Question: What about the GI50 [20] of the same molecule?
Answer: Its GI50 is 1.35 µM.

Question: What about the TGI [20] of the same molecule?
Answer: The TGI was 5.53 µM.

Question: And the GI50 [21]?
Answer: The GI50 was 2.13 µM.

Question: What about the TGI [21] of the same molecule?
Answer: The TGI was 15.9 µM.

Question: What about the GI50 [22] of the same molecule?
Answer: The GI50 was 2.53 µM.

Question: And the TGI [22]?
Answer: Its TGI is 11.6 µM.

Question: And the GI50 [23]?
Answer: Its GI50 is 1.37 µM.

Question: What about the TGI [23] of the same molecule?
Answer: Its TGI is 12.1 µM.

Question: And the GI50 [24]?
Answer: The GI50 was 0.525 µM.

Question: And the TGI [24]?
Answer: Its TGI is 7.36 µM.

Question: And the GI50 [25]?
Answer: Its GI50 is 0.453 µM.

Question: And the TGI [25]?
Answer: Its TGI is 10.8 µM.

Question: And the GI50 [26]?
Answer: Its GI50 is 1.65 µM.

Question: What about the TGI [26] of the same molecule?
Answer: The TGI was 10.6 µM.

Question: What about the GI50 [27] of the same molecule?
Answer: The GI50 was 0.521 µM.

Question: And the TGI [27]?
Answer: Its TGI is 9.66 µM.

Question: And the GI50 [28]?
Answer: Its GI50 is 1.19 µM.

Question: What about the TGI [28] of the same molecule?
Answer: The TGI was greater than 100 µM.

Question: What about the GI50 [29] of the same molecule?
Answer: The GI50 was 2.18 µM.

Question: What about the TGI [29] of the same molecule?
Answer: Its TGI is 11.8 µM.

Question: And the GI50 [30]?
Answer: Its GI50 is 0.274 µM.

Question: And the TGI [30]?
Answer: Its TGI is 0.682 µM.

Question: And the GI50 [31]?
Answer: The GI50 was 2.41 µM.

Question: And the TGI [31]?
Answer: The TGI was 15 µM.

Question: What about the GI50 [32] of the same molecule?
Answer: Its GI50 is 1.99 µM.

Question: What about the TGI [32] of the same molecule?
Answer: Its TGI is 12.9 µM.

Question: And the GI50 [33]?
Answer: Its GI50 is 1.26 µM.

Question: And the TGI [33]?
Answer: The TGI was 10.3 µM.

Question: And the GI50 [34]?
Answer: The GI50 was 4.13 µM.

Question: And the TGI [34]?
Answer: The TGI was 22.1 µM.

Question: And the GI50 [35]?
Answer: Its GI50 is 2.81 µM.

Question: And the TGI [35]?
Answer: The TGI was 12.4 µM.

Question: And the GI50 [36]?
Answer: Its GI50 is 1.93 µM.

Question: And the TGI [36]?
Answer: Its TGI is 12.8 µM.

Question: And the GI50 [37]?
Answer: Its GI50 is 1.87 µM.

Question: What about the TGI [37] of the same molecule?
Answer: Its TGI is 23.6 µM.

Question: What about the GI50 [38] of the same molecule?
Answer: The GI50 was 1.66 µM.

Question: And the TGI [38]?
Answer: Its TGI is 5.93 µM.

Question: What about the GI50 [39] of the same molecule?
Answer: Its GI50 is 0.34 µM.

Question: And the TGI [39]?
Answer: The TGI was 2.05 µM.

Question: And the GI50 [40]?
Answer: The GI50 was 0.497 µM.

Question: What about the TGI [40] of the same molecule?
Answer: Its TGI is 3.48 µM.

Question: What about the GI50 [41] of the same molecule?
Answer: The GI50 was 0.584 µM.

Question: And the TGI [41]?
Answer: The TGI was 12.9 µM.

Question: What about the GI50 [42] of the same molecule?
Answer: Its GI50 is 0.973 µM.

Question: What about the TGI [42] of the same molecule?
Answer: Its TGI is 16.7 µM.

Question: And the GI50 [43]?
Answer: Its GI50 is 2.68 µM.

Question: And the TGI [43]?
Answer: The TGI was 15 µM.

Question: And the GI50 [44]?
Answer: Its GI50 is 0.908 µM.

Question: What about the TGI [44] of the same molecule?
Answer: The TGI was 58.9 µM.

Question: And the GI50 [45]?
Answer: Its GI50 is 0.941 µM.

Question: What about the TGI [45] of the same molecule?
Answer: The TGI was 16.5 µM.

Question: And the GI50 [46]?
Answer: Its GI50 is 0.678 µM.

Question: And the TGI [46]?
Answer: Its TGI is 7.96 µM.

Question: And the GI50 [47]?
Answer: The GI50 was 0.419 µM.

Question: What about the TGI [47] of the same molecule?
Answer: Its TGI is 7.12 µM.

Question: And the GI50 [48]?
Answer: Its GI50 is 0.335 µM.

Question: What about the TGI [48] of the same molecule?
Answer: The TGI was 12 µM.

Question: What about the GI50 [49] of the same molecule?
Answer: The GI50 was 1.03 µM.

Question: What about the TGI [49] of the same molecule?
Answer: The TGI was 51.3 µM.

Question: What about the GI50 [50] of the same molecule?
Answer: Its GI50 is 4.04 µM.

Question: And the TGI [50]?
Answer: Its TGI is 22.4 µM.

Question: What about the GI50 [51] of the same molecule?
Answer: The GI50 was 2.52 µM.

Question: What about the TGI [51] of the same molecule?
Answer: The TGI was 14 µM.

Question: What about the GI50 [52] of the same molecule?
Answer: The GI50 was 1.34 µM.

Question: And the TGI [52]?
Answer: The TGI was 13.9 µM.

Question: What about the GI50 [53] of the same molecule?
Answer: The GI50 was 1.38 µM.

Question: What about the TGI [53] of the same molecule?
Answer: Its TGI is 13.9 µM.

Question: And the GI50 [54]?
Answer: Its GI50 is 0.953 µM.

Question: What about the TGI [54] of the same molecule?
Answer: Its TGI is 11.5 µM.

Question: What about the GI50 [55] of the same molecule?
Answer: The GI50 was 1.34 µM.

Question: What about the TGI [55] of the same molecule?
Answer: The TGI was 8.47 µM.
